This is an account of results in patent US10183937B2, “1,3-thiazol-2-yl substituted benzamides” (BAYER AKTIENGESELLSCHAFT, priority 2014, dated 2019).

One series relates to rat hepatocytes. In words: In vitro metabolic stability in rat hepatocytes. The format is in vitro ADME, Han Wistar rats. As to conditions: 1 μM, maximal oral bioavailability calculated from half-life. Here is the method: Determination of In Vitro Metabolic Stability in Rat Hepatocytes (Including Calculation of Hepatic In Vivo Blood Clearance (CL))
Hepatocytes from Han Wistar rats were isolated via a 2-step perfusion method. After perfusion, the liver was carefully removed from the rat: the liver capsule was opened and the hepatocytes were gently shaken out into a Petri dish with ice-cold Williams' medium E (WME). The resulting cell suspension was filtered through sterile gaze in 50 mL falcon tubes and centrifuged at 50×g for 3 min at room temperature. The cell pellet was resuspended in 30 mL WME and centrifuged through a Percoll® gradient for 2 times at 100×g. The hepatocytes were washed again with WME and resuspended in medium containing 5% FCS. Cell viability was determined by trypan blue exclusion. […] The test compound was added to a final concentration of 1 μM. […] Samples were frozen at −20° C. overnight, subsequently centrifuged for 15 minutes at 3000 rpm and the supernatant was analyzed with an Agilent 1200 HPLC-system with LCMS/MS detection.
The half-life of a test compound was determined from the concentration-time plot. From the half-life (kel: slope of concentration-time plot; half-life=ln 2/kel) the intrinsic clearances were calculated. Together with the additional parameters liver blood flow, amount of liver cells in vivo and in vitro.
(§1) Metabolic instability is often the main clearance mechanism of xenobiotica leading to a high CL and low bioavailability which may eventually result in a short half-life and a low exposure after oral administration. Thus, reducing the susceptibility of metabolic degradation usually leads to a more favourable pharmacokinetic profile. When using liver microsomes as incubation matrix main phase I metabolic reactions, typically oxidoreductive reactions by cytochrome P450 enzymes and flavin mono-oxygenases (FMO) and hydrolytic reactions by esterases/amidases/epoxidhydrolases, are described. When the incubation of the test compound is performed in a hepatocyte matrix all potential hepatic metabolic processes (phase I and phase II) are covered.

Series [1] in a line: In vitro metabolic stability in liver microsomes (calculation of CL and Fmax). Format: in vitro ADME, human. The settings on record: 1 μM, maximal oral bioavailability calculated from half-life. How it is done:
In Vitro Metabolic Stability Assays Determination of In Vitro Metabolic Stability in Microsomes (Including Calculation of Hepatic In Vivo Blood Clearance (CL) and of Maximal Oral Bioavailability (Fmax))
The metabolic assay was started shortly afterwards by adding the test compound to the incubation at a final volume of 1 mL. Organic solvent in the incubations was limited to ≤0.01% dimethylsulfoxide (DMSO) and ≤1% acetonitrile. […] Samples were frozen at −20° C. overnight, subsequently centrifuged for 15 minutes at 3000 rpm and the supernatant was analyzed with an Agilent 1200 HPLC-system with LCMS/MS detection.
The half-life of a test compound was determined from the concentration-time plot. From the half-life (kel: slope of concentration-time plot; half-life=ln 2/kel) the intrinsic clearances were calculated. Together with the additional parameters liver blood flow, specific liver weight and microsomal protein content the hepatic in vivo blood clearance (CL) and the maximal oral bioavailability (Fmax) were calculated for the different species.
as §1

For series [2] the following is noted: clinical PhII trials; attributed to blockade of P2X2/3 channels; cited from earlier work.
Series [3] is described as follows: Human liver cytosol stability assay. As to conditions: 4 h incubation. The format is in vitro ADME. How it is done: Human Liver Cytosol Stability Assay
Method description: Human liver cytosol (pooled, >30 male and female donors) was incubated with individual test compounds in order to compare the extent of depletion of test compound and formation of the respective oxidised metabolite.
An incubation volume of 1000 μL was used. The test compound was added from a stock solution in acetonitrile at 1 or 10 μM concentration in the incubation. Incubations were performed at 37° C. Reactions were stopped at 0 h and 4 h after incubation by addition of 100 μL acetonitrile to 250 μL of incubation mixture. Precipitated proteins were removed by centrifugation at approximately 3000 rpm. The supernatants were stored at approximately −20° C. until they were analysed. […]
Data analysis: The depletion of the test compound and formation of the corresponding metabolites were determined by decrease or increase of the corresponding peak area in the chromatogram after UV detection at approximately 300 nm 4 h after incubation compared to that at 0 h after incubation. […]

The next series concerns vaginal hyperalgesia. In words: Rat dyspareunia model (visceromotor response to vaginal distension). The settings on record: 15 mg/kg oral b.i.d. during 2 weeks. Format: in vivo, Sprague Dawley rats.

Description for vaginal hyperalgesia: The visceromotor response (VMR) to vaginal distension was used in conscious animals as an objective measure of vaginal sensitivity. […] To measure VMR response, 2 Teflon-coated wire electrodes were sutured in the external oblique abdominal muscle, and tunneled subcutaneously to be exteriorized at the base of the neck for future access. On the day of VMR assessment, a lubricated small balloon (1 cm length) was inserted into the mid-vaginal canal. The balloon catheter was secured to the base of the tail and connected to a volume controller/timing device (infusion pump) for balloon distension. The vaginal balloon was inflated to ramp intensities of distension (0.05 ml increments every 20 sec.) to a maximal volume of 0.8 ml. The electrodes were connected to an amplifier (Animal Bio Amp, ADInstruments), and the abdominal electromyographic signal was recorded using a data acquisition system (PowerLab, ADInstruments) for off-line analysis using LabChart version 7. The number of abdominal muscle contractions was counted manually for each 0.1 ml distension step, as an index of vaginal pain. […] All data were expressed as mean±standard deviation (s.d.), for the number (n) of measured rats per group. […] Planned comparison of means (matched-volume versus vehicle) was performed using a Bonferroni post hoc test, provided that a main effect was detected. […]

Consider `Cc1cnc(-c2cc(OC(C)C(C)O)cc(C(=O)N[C@H](C)c3cnc(C(F)(F)F)nc3)c2)s1` (single isomer, unassigned) [Example 163], for which, in the series with rat hepatocytes, the “Rat hepatocyte Fmax” value is 53%. Moreover, the “Human liver microsome Fmax” value in series [1] was 100%.
Regarding `Cc1cnc(-c2cc(OC(C)C(C)O)cc(C(=O)N[C@H](C)c3ccc(C(F)(F)F)nn3)c2)s1` (single isomer, unassigned) [Example 183], the “Rat hepatocyte Fmax” value with rat hepatocytes is 43%. Moreover, in series [1], the “Human liver microsome Fmax” value is given as 74%.
`Cc1cnc(-c2cc(OC(C)C(C)O)cc(C(=O)N[C@H](C)c3cnc(C(F)(F)F)nc3)c2)s1` (single isomer, unassigned) [Example 339]: in the series on rat hepatocytes, the “Rat hepatocyte Fmax” value was 52%. The “Human liver microsome Fmax” value in series [1] was 94%.
Turning to `Cc1cnc(-c2cc(OC(C)C(C)O)cc(C(=O)N[C@H](C)c3cnc(C(F)(F)F)nc3)c2)s1` (single isomer, unassigned) [Example 340], the “Rat hepatocyte Fmax” value in the series on rat hepatocytes is given as 64%. Further, the “Human liver microsome Fmax” value in series [1] was 90%.
As to `COc1cc(C(C)C)c(Oc2cnc(N)nc2N)cc1S(N)(=O)=O` [AF-219], in series [2], the “taste side effect in treated subjects” value is reported as “taste disturbances”.
Take `Cc1cnc(-c2cc(O[C@@H]3CCOC3)cc(C(=O)N[C@H](C)c3cnc(C(F)(F)F)nc3)c2)s1` [Example 11, 3-(5-Methyl-1,3-thiazol-2-yl)-5-[(3R)-tetrahydrofuran-3-yloxy]-N-{(1R)-1-[2-(trifluoromethyl)pyrimidin-5-yl]ethyl}benzamide]: in series [3], the “Test compound turnover after 4 h” value is 0.9%. For the same molecule, the “Vaginal hyperalgesia compared to vehicle-treated animals” value in the series with vaginal hyperalgesia is reported as “decreased vaginal hyperalgesia compared to vehicle-treated animals”. The “Rat hepatocyte Fmax” value in the series with rat hepatocytes is recorded as 52%. Moreover, the “Human liver microsome Fmax” value in series [1] is given as 57%.
Turning to `Cc1cnc(-c2cc(O[C@H]3CCOC3)cc(C(=O)N[C@H](C)c3cnc(C(F)(F)F)nc3)c2)s1` [Example 26, 3-(5-Methyl-1,3-thiazol-2-yl)-5-[(3S)-tetrahydrofuran-3-yloxy]-N-{(1R)-1-[2-(trifluoromethyl)pyrimidin-5-yl]ethyl}benzamide], the “Test compound turnover after 4 h” value in series [3] is 0.9%. Also, in the series on rat hepatocytes, the “Rat hepatocyte Fmax” value is reported as 56%. The “Human liver microsome Fmax” value in series [1] is 67%.
Turning to `CCc1cnc(-c2cc(OC[C@H]3CN(C)CCO3)cc(C(=O)N[C@H](C)c3ccc(C(F)(F)F)nn3)c2)s1` [Example 419, 3-(5-ethyl-1,3-thiazol-2-yl)-5-{[(2R)-4-methyl-morpholin-2-yl]methoxy}-N-{(1R)-1-[6-(trifluoromethyl)pyridazin-3-yl]ethyl} benzamide], in the series on rat hepatocytes, the “Rat hepatocyte Fmax” value is reported as 51%. In addition, in series [1], the “Human liver microsome Fmax” value is 74%.
